Measurements published in US20120142627A1, “MONOPHOSPHATE PRODRUGS OF DAPD AND ANALOGS THEREOF” (Emory University, priority 2010, published 2012).
Read-outs that look alike come from different tables or passages of the source.

Tests used:
PBM cells = experiment: Intracellular metabolites (DXG-TP, DAPD-TP) in PBM cells; type: in vitro ADME, human; details: for DXG-TP levels: PBM cells incubated for 4 h at 50 µM, mean and S.D.; for intracellular DXG-TP detected (in words) / intracellular phosphorylated DAPD / DAPD-TP detected (in words): PBM cells, 50 μM, 4 h, 37° C.
Method: Reexamination of the intracellular metabolism of DAPD, which contains a 6-amino group, at 50 μM for 4 h in PBM cells at 37° C. resulted the detection of high levels of DXG-TP in addition to DXG and DXG-MP.
PBM cells were incubated with the corresponding compounds for 4 h […]. The data plotted represent the mean value and S.D. of experiments with PBM cells.

adenosine deaminase = experiment: Adenosine deaminase assay; type: biochemical; details: 7 minutes, 0.002 units of enzyme, 50 μM, pH 7.4, 25° C.
Method: To determine the propensity for deamination of the 6-substituted-2-amino purine dioxolane monophosphate prodrugs by adenosine deaminase, nucleoside compounds were incubated with the commercially available purified enzyme, and the reaction was followed spectrophotometrically. Reaction conditions were 50 mM potassium phosphate, pH 7.4, with 50 μM nucleoside analog in 0.5 mL at 25° C. Reaction time was 7 minutes with 0.002 units of enzyme and 120 minutes with 0.2 units of enzyme. (The unit definition of adenosine deaminase is one unit will deaminate 1.0 μmol of adenosine to inosine per minute at pH 7.5 at 25° C.) Deoxyadenosine was the positive control which was 59% deaminated under the given conditions in 7 minutes with 0.002 units of enzyme. Deoxyguanosine was the negative control. Optical density was measured at 265 nm or 285 nm. The difference in optical density between the beginning and the end of the experiment was divided by the extinction coefficient then multiplied by the volume of the reaction to determine the number of mols of substrate transformed into product. Mols of product were divided by mols of substrate equivalent to a 100% complete reaction then multiplied by 100 to obtain percent deamination. The limit of detection was 0.001 optical density units.

HIV-1LAI = experiment: Anti-HIV (in PBM cells) assay; type: cell-based; details: Human immunodeficiency virus 1, PBMC; for EC50: read-out: HIV EC50; for EC90: read-out: HIV EC90
Method: Stock solutions (20-40 mM) of the compounds were prepared in sterile DMSO and then diluted to the desired concentration in growth medium. Cells were infected with the prototype HIV-1LAI at a multiplicity of infection of 0.01. Virus obtained from the cell supernatant was quantified on day 6 after infection by a reverse transcriptase assay using (rA)n.(dT)12-18 as template-primer. The DMSO present in the diluted solution (<0.1%) had no effect on the virus yield. AZT was included as positive control.

human PBM cells = experiment: Cytotoxicity in human PBM cells; type: cell-based
Method: v) Cellular Toxicity Assays: 6-Substituted-2-amino purine dioxolane monophosphate prodrugs were evaluated for their potential toxic effects on P4/R5 cells, MT-2 cells and uninfected PHA-stimulated human PBM cell. Log-phase P4/R5, MT-2, and PHA-stimulated human PBM cells were seeded at 5×10^3 to 5×10^4 cells/well in 96-well cell culture plates containing 10-fold serial dilutions of the test drug. The cultures were incubated for 2-4 days, after which 3-(4,5-dimethylthiazol-2-yl)-2,5-diphenyltetrazolium bromide (MIT) dye solution (Promega, Madison, Wis.) were added to each well and incubated overnight. The reaction was stopped with stop solubilization solution (Promega, Madison, Wis.) and plates were read at a wavelength of 570 nm.

[1] = tested on: PHA-stimulated human PBMCs and CEM cells; details: cited from earlier work
[2] = tested on: CEM (human lymphoblastoid) cells; experiment: Cytotoxicity in CEM cells; details: Lymphoblastoid cell, read-out: CEM IC50
Text: (§1) The toxicity of the compounds can be assessed in Vero, human PBM, CEM (human lymphoblastoid), MT-2, and HepG2 cells, as described previously (see Schinazi R. F., Sommadossi J.-P., Saalmann V., Cannon D. L., Xie M.-Y., Hart G. C., Smith G. A. & Hahn E. F. Antimicrob. Agents Chemother. 1990, 34, 1061-67). Cycloheximide can be included as positive cytotoxic control, and untreated cells exposed to solvent can be included as negative controls. The cytotoxicity IC50 can be obtained from the concentration-response curve using the median effective method described previously (see Chou T.-C. & Talalay P. Adv. Enzyme Regul. 1984, 22, 27-55; Belen'kii M. S. & Schinazi R. F. Antiviral Res. 1994, 25, 1-11).

Vero cells = experiment: Cytotoxicity in Vero cells; details: Chlorocebus sabaeus, read-out: Vero IC50
Text: as §1

| SMILES | DXG-TP levels (PBM cells) | intracellular DXG-TP detected (in words) (PBM cells) | intracellular phosphorylated DAPD / DAPD-TP detected (in words) (PBM cells) | IC50 [2] | IC50 (Vero cells) | also measured |
| --- | --- | --- | --- | --- | --- | --- |
| Nc1nc2c(ncn2[C@H]2CO[C@@H](CO)O2)c(=O)[nH]1 [DXG, (−)-β-D-dioxolane guanine] | 1.75 ± 0.07 pmol/10^6 cells |  |  |  |  |  |
| Nc1nc(Cl)c2ncn(C3COC(CO)O3)c2n1 (centres unmarked) [6-Cl-DXG] | 0.10 pmol/10^6 cells |  |  |  |  |  |
| Nc1ncnc2c1ncn2[C@H]1C[C@H](O)[C@@H](CO)O1 [Deoxyadenosine] |  |  |  |  |  | percent deaminated by adenosine deaminase (adenosine deaminase): 59% |
| COc1nc(N)nc2c1ncn2C1COC(CO)O1 (centres unmarked) [6-OMe-DXG] | 0.55 pmol/10^6 cells |  |  |  |  |  |
| Nc1nc(N)c2ncn([C@H]3CO[C@@H](CO)O3)c2n1 [DAPD] |  | high levels | no phosphorylated forms of DAPD were detected | > 100 µM | > 100 µM | EC50 (HIV-1LAI; human PBM cells): 1 µM; EC90 (HIV-1LAI; human PBM cells): 6.5 µM; IC50 (human PBM cells; Homo sapiens, PBMC, cytotoxicity): > 100 µM; DAPD level in PBMCs relative to CEM cells [1]: 27 fold; phosphorylation of DAPD to mono-, di-, or triphosphate forms ([1]; either cell type): No phosphorylation |
| CCOC(=O)[C@H](C)NP(=O)(OC[C@@H]1OC[C@H](n2cnc3c(N)nc(N)nc32)O1)Oc1ccccc1 (some centres unmarked) [RS-864] |  | low levels | very high levels | > 100 µM | > 100 µM | EC50 (HIV-1LAI): 0.24 µM; EC90 (HIV-1LAI): 1.3 µM; PBM IC50 (printed as % @ 100 μM) (human PBM cells; @ 100 μM): 66.5% |
